The target in one experiment is T1, Bovine trypsin (Bos taurus, UniProt P00760).
T1 construct: purchased Sigma-Aldrich T1426
T1 sequence (P00760 24-246): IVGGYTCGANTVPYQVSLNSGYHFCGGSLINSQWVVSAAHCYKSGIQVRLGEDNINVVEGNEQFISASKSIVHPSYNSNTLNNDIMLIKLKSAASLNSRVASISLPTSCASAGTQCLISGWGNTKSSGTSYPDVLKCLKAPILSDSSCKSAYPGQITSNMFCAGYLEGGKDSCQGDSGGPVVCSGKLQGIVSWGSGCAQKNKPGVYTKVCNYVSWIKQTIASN
As to the kind of experiment: Biochemical Assay of Trypsin (T), H-D-CHA-AR-AMC substrate. To be noted: 15 μM substrate, 0.025 nM Trypsin; for inhibition at 0.1 µM: compound 0.1 μM; for inhibition at 1 µM: compound 1 μM; for inhibition at 10 µM: compound 10 μM. The method, then: Bovine trypsin was purchased from Sigma-Aldrich (Cat No. T1426), and 7-amino-4-methylcoumarin (AMC) conjugated peptide H-D-cyclohexylalanine (D-CHA)-AR-AMC was used as the substrate in the assay. The protease activity of trypsin was followed by measuring AMC production by the emission fluorescence intensity of AMC at 460 nm with the excitation at 375 nm, in the same assay buffer as used in the EP assay. The enzyme kinetic characterization studies yielded an average of KM to be 3.9±0.5 μM and the apparent turnover number kcat^app of 33.8±0.4 s^−1 (N=2).
Studies of compound inhibition against T were carried out under the conditions of 15 μM substrate and 0.025 nM Trypsin. Reaction progress curves were collected by reading the FI at 375/460 nm continuously for 1 hour at an interval of 1 minute. Similar to the procedure for Enteropeptidase described above, compounds of formula (I) were screened against Trypsin at 4 different concentrations to obtain the percent of inhibition at 10 μM, 1 μM, 0.1 μM and 0.01 μM, and accurate potencies of selected compounds against Trypsin were derived from detailed 12-point dose-dependence studies for time-dependent inhibitors.
(§1) Representative compounds of the present invention were tested according to the procedures as described in Biological Example 1 and Biological Example 2 above, with results as listed in Table 2 and Table 3, below. Results are reported as the %-inhibition (% Inh) or Kinact/KI value. Variability for the functional assay was typically within 20%. For the column headed Kinact/KI the listed measurement is the result of duplicate dilutions.

For experiment [1], the target named is T2, Recombinant full-length human EP (Enteropeptidase) (Homo sapiens, UniProt P98073).
T2 construct: Recombinant full-length human EP (PeproTech, Cat #450-48C); purchased PeproTech 450-48C
T2 sequence (P98073 whole entry): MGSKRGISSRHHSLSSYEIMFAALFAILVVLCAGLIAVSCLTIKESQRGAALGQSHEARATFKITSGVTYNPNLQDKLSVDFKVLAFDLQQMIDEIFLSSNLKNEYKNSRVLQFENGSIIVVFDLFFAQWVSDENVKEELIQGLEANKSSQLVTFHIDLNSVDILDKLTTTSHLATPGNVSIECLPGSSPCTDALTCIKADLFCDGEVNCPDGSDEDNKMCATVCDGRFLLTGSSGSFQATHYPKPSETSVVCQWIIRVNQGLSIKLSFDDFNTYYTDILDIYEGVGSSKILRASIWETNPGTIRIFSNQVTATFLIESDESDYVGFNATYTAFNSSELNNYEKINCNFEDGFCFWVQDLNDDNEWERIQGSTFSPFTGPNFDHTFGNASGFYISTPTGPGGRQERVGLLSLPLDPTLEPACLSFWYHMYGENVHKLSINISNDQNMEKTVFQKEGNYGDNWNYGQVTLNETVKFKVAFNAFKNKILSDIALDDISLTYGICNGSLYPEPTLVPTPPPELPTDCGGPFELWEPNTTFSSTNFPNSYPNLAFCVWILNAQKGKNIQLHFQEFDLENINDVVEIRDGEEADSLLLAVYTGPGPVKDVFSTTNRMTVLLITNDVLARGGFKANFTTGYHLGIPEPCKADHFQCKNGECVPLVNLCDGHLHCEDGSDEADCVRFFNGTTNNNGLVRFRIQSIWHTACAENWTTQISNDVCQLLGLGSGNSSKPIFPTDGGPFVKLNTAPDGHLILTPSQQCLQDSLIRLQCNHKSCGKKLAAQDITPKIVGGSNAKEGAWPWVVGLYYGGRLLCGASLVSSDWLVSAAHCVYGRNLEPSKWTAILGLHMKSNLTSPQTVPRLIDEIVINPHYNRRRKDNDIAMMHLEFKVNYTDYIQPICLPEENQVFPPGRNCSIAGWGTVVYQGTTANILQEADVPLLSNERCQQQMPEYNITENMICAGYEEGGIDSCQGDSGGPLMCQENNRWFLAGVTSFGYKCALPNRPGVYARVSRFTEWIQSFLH
As to the kind of experiment: In vitro inhibition potencies against Enteropeptidase (EP), fluorescent peptide GDDDDK-naphthylamine substrate. Particulars: 300 μM substrate, 1.25 nM EP; for inhibition at 0.1 µM: compound 0.1 μM; for inhibition at 1 µM: compound 1 μM; for inhibition at 10 µM: compound 10 μM. The format is biochemical. The procedure: In vitro inhibition potencies against Enteropeptidase (EP) Recombinant full-length human EP (PeproTech, Cat #450-48C) was used in this biochemical assay, with a quenched fluorescent labeled peptide GDDDDK-naphthylamine (NA) (Sigma, Cat #G5261) as the substrate in a buffer of 50 mM Tris-HCl pH 7.4, 200 mM NaCl and 0.01% Triton X-100. The enzyme activity was measured by following the formation of the cleavage product […](NA) by monitoring the fluorescence intensity (FI) at excitation/emission wavelengths of 340/410 nm. The steady-state kinetic characterization studies yielded an average of KM to be 412±22 μM and the apparent turnover number kcat^app of 11.8±0.4 s^−1 (N=2).
Compound inhibition studies were carried out under the conditions of 300 μM substrate and 1.25 nM EP. Reaction progress curves were collected by reading the FI at 340/410 nm continuously for 1 hour at an interval of 1 minute.
To screen compounds of formula (I), inhibition was studied at 4 different compound concentrations of 10 μM, 1 μM, 0.1 μM and 0.01 μM. Initial velocity of the reaction was determined, and percent of inhibition was calculated by comparing to the reaction in the absence of compound.
Accurate measurements of the inhibition potencies of selected compounds were studied in a 12-point dose-dependence fashion. […] Compound potency was measured by determining the inactivation rate constant (kobs) following the reaction change from the initial velocity vi to the steady-state velocity vs at various compound concentrations. The inactivation rate constants (kobs), were derived by fitting the reaction progress curves to eq. 1.
where YT is the detection signal of the reaction at time t, vi and vs are the initial and the steady-state velocities of the reaction, t is the reaction time. Y0 is the background signal (when t=0).
Compound binding mechanism was shown by plotting kobs˜[compound]. Hyperbolic fitting to eq. 2
conforms to a two-step binding mechanism as shown in Scheme BIO-1.
The plateau of the curve is the forward step rate constant of the isomerization step k3, KI^app is the inhibitor concentration that leads to half-maximal rate of inhibition of enzyme under the assay conditions. Compound inhibition potency was reported by the value of k3/KI^app.
A linear dependence of eq.3
indicates a one-step binding mechanism as shown in Scheme BIO-2
Slope of the linear fit gives the second-order rate constant of the compound binding k1, which is used to represent the compound inhibition potency.
as §1

Structures are written as SMILES.

For the compound `N=C(N)Nc1ccc(C(=O)Oc2ccc(CC(=O)NC(CC(=O)O)C(=O)O)n3ccnc23)cc1` (stereo not drawn) [Compound 27, 2-(2-(8-(4-guanidinobenzoyloxy)imidazo[1,2-a]pyridin-5-yl)acetamido)succinic acid], on Bovine trypsin, the inhibition at 0.1 µM stood at 99.3%, the inhibition at 1 µM amounted to 100% and the inhibition at 10 µM turned out to be 100%. In experiment [1], the inhibition at 0.1 µM came out at 81.2%, the inhibition at 1 µM stood at 100% and the inhibition at 10 µM came to 100%.
In the case of `N=C(N)Nc1ncc(C(=O)Oc2ccc(CC(=O)NC(CC(=O)O)C(=O)O)n3ncnc23)cn1` (stereo not drawn) [Compound 28, 2-(2-(8-(2-guanidinopyrimidine-5-carbonyloxy)-[1,2,4]triazolo[1,5-a]pyridin-5-yl)acetamido)succinic acid], on Bovine trypsin, the inhibition at 0.1 µM was 97.8%, the inhibition at 1 µM turned out to be 99.9% and the inhibition at 10 µM is 100%. In experiment [1], the inhibition at 0.1 µM worked out at 88.6%, the inhibition at 1 µM is 98.5% and the inhibition at 10 µM worked out at 99.9%.
Consider `N=C(N)Nc1ncc(C(=O)Oc2ccc(CC(=O)O)n3ccnc23)cn1` [Compound 29, 2-(8-(2-guanidinopyrimidine-5-carbonyloxy)imidazo[1,2-a]pyridin-5-yl)acetic acid], for which, on Bovine trypsin, the inhibition at 0.1 µM worked out at 95.8%, the inhibition at 1 µM worked out at 99.7% and the inhibition at 10 µM was 100%. Moreover, in experiment [1], the inhibition at 0.1 µM came out at 95.3%, the inhibition at 1 µM worked out at 99.4% and the inhibition at 10 µM stood at 100%.
On to `CS(=O)(=O)NC(=O)Cc1ccc(OC(=O)c2cnc(NC(=N)N)nc2)c2ncnn12` [Compound 30, 5-(2-(methylsulfonamido)-2-oxoethyl)-[1,2,4]triazolo[1,5-a]pyridin-8-yl 2-guanidinopyrimidine-5-carboxylate], for which, on Bovine trypsin, the inhibition at 0.1 µM is 96.5%, the inhibition at 1 µM came out at 100% and the inhibition at 10 µM was determined as 100%. Besides, in experiment [1], the inhibition at 0.1 µM was found to be 92.1%, the inhibition at 1 µM was found to be 99.5% and the inhibition at 10 µM is 100%.
Take `N=C(N)Nc1ncc(C(=O)Oc2ccc(CC(=O)NC(CC(=O)O)C(=O)O)n3ccnc23)cn1` (stereo not drawn) [Compound 31, 2-(2-(8-(2-guanidinopyrimidine-5-carbonyloxy)imidazo[1,2-a]pyridin-5-yl)acetamido)succinic acid]: on Bovine trypsin, the inhibition at 0.1 µM turned out to be 95.7%, the inhibition at 1 µM was determined as 99.9% and the inhibition at 10 µM stood at 100%. Further, in experiment [1], the inhibition at 0.1 µM is 85.8%, the inhibition at 1 µM is 99.7% and the inhibition at 10 µM was found to be 99.8%.
As for `N=C1NCCN1c1ccc(C(=O)Oc2ccc(CC(=O)O)n3ncnc23)cc1` [Compound 32, 2-(8-(4-(2-iminoimidazolidin-1-yl)benzoyloxy)-[1,2,4]triazolo[1,5-a]pyridin-5-yl)acetic acid], at Bovine trypsin, the inhibition at 0.1 µM came out at 10.9%, the inhibition at 1 µM is 58.3% and the inhibition at 10 µM is 93%. In addition, in experiment [1], the inhibition at 0.1 µM amounted to 10.5%, the inhibition at 1 µM is 57.9% and the inhibition at 10 µM stood at 93.2%.
Consider `CNC(=N)c1ccc(C(=O)Oc2ccc(CC(=O)O)n3ncnc23)cc1` [Compound 33, 2-(8-(4-(N-methylcarbamimidoyl)benzoyloxy)-[1,2,4]triazolo[1,5-a]pyridin-5-yl)acetic acid], for which, at Bovine trypsin, the inhibition at 0.1 µM stood at 5.7%, the inhibition at 1 µM was 8.7% and the inhibition at 10 µM turned out to be 66.5%. In experiment [1], the inhibition at 0.1 µM was -0.8%, the inhibition at 1 µM turned out to be 11.3% and the inhibition at 10 µM turned out to be 52.3%.
As for `CNC(=N)Nc1ccc(C(=O)Oc2ccc(CC(=O)O)n3ncnc23)cc1` [Compound 34, 2-(8-(4-(3-methylguanidino)benzoyloxy)-[1,2,4]triazolo[1,5-a]pyridin-5-yl)acetic acid], at Bovine trypsin, the inhibition at 0.1 µM worked out at 9.6%, the inhibition at 1 µM is 57.1% and the inhibition at 10 µM is 97.7%. In experiment [1], the inhibition at 0.1 µM is 15.3%, the inhibition at 1 µM worked out at 80.1% and the inhibition at 10 µM worked out at 97.9%.
As to `CN(C(=N)N)c1ccc(C(=O)Oc2ccc(CC(=O)O)n3ncnc23)cc1` [Compound 35, 2-(8-(4-(1-methylguanidino)benzoyloxy)-[1,2,4]triazolo[1,5-a]pyridin-5-yl)acetic acid], at Bovine trypsin, the inhibition at 0.1 µM was 31.4%, the inhibition at 1 µM is 89.2% and the inhibition at 10 µM came out at 98.9%. Further, in experiment [1], the inhibition at 0.1 µM was found to be 40.5%, the inhibition at 1 µM was 93.8% and the inhibition at 10 µM was 99.3%.
For the compound `CONC(=N)c1ccc(C(=O)Oc2ccc(CC(=O)O)n3ncnc23)cc1` [Compound 36, 2-(8-(4-(N-methoxycarbamimidoyl)benzoyloxy)-[1,2,4]triazolo[1,5-a]pyridin-5-yl)acetic acid], at Bovine trypsin, the inhibition at 0.1 µM was -3.1%, the inhibition at 1 µM was -3.3% and the inhibition at 10 µM amounted to 18.2%. Also, in experiment [1], the inhibition at 0.1 µM came out at 2.4%, the inhibition at 1 µM came to 9.1% and the inhibition at 10 µM came to 34%.
Regarding `CC(=N)Nc1ccc(C(=O)Oc2ccc(CC(=O)O)n3ncnc23)cc1` [Compound 37, 2-(8-(4-acetimidamidobenzoyloxy)-[1,2,4]triazolo[1,5-a]pyridin-5-yl)acetic acid], on Bovine trypsin, the inhibition at 0.1 µM was 11.5%, the inhibition at 1 µM is 68% and the inhibition at 10 µM is 99.7%. Moreover, in experiment [1], the inhibition at 0.1 µM is 47.8%, the inhibition at 1 µM was found to be 99.6% and the inhibition at 10 µM is 100%.
Regarding `N#CNC(=N)c1ccc(C(=O)Oc2ccc(CC(=O)O)n3ncnc23)cc1` [Compound 38, 2-(8-(4-(N-cyanocarbamimidoyl)benzoyloxy)-[1,2,4]triazolo[1,5-a]pyridin-5-yl)acetic acid], on Bovine trypsin, the inhibition at 0.1 µM was -2.1%, the inhibition at 1 µM amounted to 2.5% and the inhibition at 10 µM came out at 35.8%. Further, in experiment [1], the inhibition at 0.1 µM is -1.6%, the inhibition at 1 µM was found to be 1.9% and the inhibition at 10 µM is 13.6%.
In the case of `N=C(NN)c1ccc(C(=O)Oc2ccc(CC(=O)O)n3ncnc23)cc1` [Compound 39, 2-(8-(4-(hydrazinyl(imino)methyl)benzoyloxy)-[1,2,4]triazolo[1,5-a]pyridin-5-yl)acetic acid], on Bovine trypsin, the inhibition at 0.1 µM is 1.6%, the inhibition at 1 µM turned out to be 2.8% and the inhibition at 10 µM worked out at 25.5%. Moreover, in experiment [1], the inhibition at 0.1 µM worked out at 0.5%, the inhibition at 1 µM was determined as 12.2% and the inhibition at 10 µM was 51.8%.

The record behind these values is patent publication US20220281866A1, “5,8-DISUBSTITUTED-[1,2,4]TRIAZOLO[1,5-A]PYRIDINYL AND 5,8-DISUBSTITUTED-IMIDAZO[1,2-A]PYRIDINE DERIVATIVES USEFUL AS INHIBITORS OF ENTEROPEPTIDASE” (Janssen Pharmaceutica NV, priority 2019, published 2022).
